Measurements from ChEMBL document CHEMBL4419178, “Yap1 inhibitors that target the interaction of yap1 with oct4” (2018).
One block for each compound: values may come before it. The source made the active and inactive calls. The calls are words filed in the database; no cut-off is given here.

Key:
[1] = target: Transcriptional coactivator YAP1 (Homo sapiens) (UniProt P46937); experiment: Inhibition of YAP1 (unknown origin) assessed as disruption in YAP1/OCT4 interaction at 50 uM by cell based assay
[2] = target: Transcriptional coactivator YAP1 (Homo sapiens) (UniProt P46937); experiment: Inhibition of YAP1 (unknown origin) assessed as disruption in YAP1/OCT4 interaction at 5 uM by ELISA relative to control
[3] = target: Transcriptional coactivator YAP1 (Homo sapiens) (UniProt P46937); experiment: Inhibition of YAP1 (unknown origin) assessed as disruption in YAP1/OCT4 interaction at 10 uM by ELISA relative to control
NCI-H1650 [4] = experiment: Inhibition of self-renewal capacity in stem-like side-population cells of human NCI-H1650 cells assessed as reduction in number of spheres at 50 uM incubated for 10 days by sphere formation assay; format: functional, cell-based
[5] = target: Transcriptional coactivator YAP1 (Homo sapiens) (UniProt P46937); experiment: Inhibition of YAP1 in human A549 cells assessed as disruption in YAP1/OCT4 co-localization at 25 uM incubated for 48 hrs by double immunofluorescence based assay; format: cell-based
NCI-H1650 [6] = experiment: Inhibition of self-renewal capacity in stem-like side-population cells of human NCI-H1650 cells assessed as reduction in number of spheres at 5 to 50 uM incubated for 10 days by sphere formation assay; format: functional, cell-based
NCI-H1650 [7] = experiment: Cytotoxicity in human NCI-H1650 cells assessed as induction of cell killing in presence of cancer associated fibroblasts at 20 to 50 uM incubated for 24 to 48 hrs by cytotracker-red/green dye staining based immunofluorescence microscopy; format: functional
[8] = Cytotoxicity in human cancer associated fibroblasts at 20 to 50 uM incubated for 24 to 48 hrs by cytotracker-red/green dye staining based immunofluorescence microscopy
[9] = target: Transcriptional coactivator YAP1 (Homo sapiens) (UniProt P46937); experiment: Inhibition of YAP1 in human NCI-H1650 cells assessed as disruption in YAP1/OCT4 interaction at 20 to 50 uM incubated for 48 hrs by proximity ligation assay; format: cell-based
NCI-H1650 [10] = experiment: Inhibition of YAP1 in human NCI-H1650 cells assessed as disruption in YAP1/TEAD2 interaction at 20 to 50 uM incubated for 48 hrs by proximity ligation assay; format: cell-based
NCI-H1650 [11] = experiment: Inhibition of self-renewal capacity in stem-like side-population cells of human NCI-H1650 cells assessed as reduction in number of spheres at 1 to 20 uM incubated for 10 days by sphere formation assay; format: functional, cell-based
NCI-H1703 [12] = experiment: Inhibition of adherence-independent cell growth in human NCI-H1703 cells at 10 uM incubated for 33 days; format: functional, cell-based
[13] = target: Transcriptional coactivator YAP1 (Homo sapiens) (UniProt P46937); experiment: Inhibition of YAP1 in human NCI-H1650 cells assessed as suppression of PDK2 mRNA expression at 5 to 10 uM incubated for 72 hrs by RT-PCR method; format: cell-based
NCI-H146 [14] = experiment: Inhibition of self-renewal capacity in methotrexate insensitive stem-like side-population cells of human NCI-H146 cells assessed as reduction in number of spheres at 2 uM incubated for 3 days after 7 days methotrexate exposure by sphere formation assay; format: functional
NCI-H146 [15] = experiment: Effect on expression of Nanog mRNA expression in human NCI-H146 cells at 5 to 10 uM incubated for 72 hrs by RT-PCR method; format: cell-based; conditions: nci-h146, 72 h
NCI-H1703 [16] = experiment: Effect on expression of Nanog mRNA expression in human NCI-H1703 cells at 5 to 10 uM incubated for 72 hrs by RT-PCR method; format: cell-based; conditions: nci-h1703, 72 h
[17] = target: Transcriptional coactivator YAP1 (Homo sapiens) (UniProt P46937); experiment: Inhibition of YAP1 in human NCI-H1703 cells assessed as suppression of PD-L1 mRNA expression at 5 to 10 uM incubated for 72 hrs by RT-PCR method; format: cell-based
[18] = target: Transcriptional coactivator YAP1 (Homo sapiens) (UniProt P46937); experiment: Inhibition of YAP1 in human NCI-H146 cells assessed as suppression of PDK2 mRNA expression at 5 to 10 uM incubated for 72 hrs by RT-PCR method; format: cell-based
[19] = target: Transcriptional coactivator YAP1 (Homo sapiens) (UniProt P46937); experiment: Inhibition of YAP1 in human NCI-H1650 cells assessed as suppression of HK2 mRNA expression at 5 to 10 uM incubated for 72 hrs by RT-PCR method; format: cell-based
[20] = target: Transcriptional coactivator YAP1 (Homo sapiens) (UniProt P46937); experiment: Inhibition of YAP1 in human NCI-H146 cells assessed as suppression of Sox2 mRNA expression at 5 to 10 uM incubated for 72 hrs by RT-PCR method; format: cell-based
[21] = target: Transcriptional coactivator YAP1 (Homo sapiens) (UniProt P46937); experiment: Inhibition of YAP1 in human NCI-H1703 cells assessed as suppression of vimentin mRNA expression at 5 to 10 uM incubated for 72 hrs by RT-PCR method; format: cell-based
[22] = target: Transcriptional coactivator YAP1 (Homo sapiens) (UniProt P46937); experiment: Inhibition of YAP1 in human NCI-H1650 cells assessed as suppression of Sox2 mRNA expression at 5 to 10 uM incubated for 72 hrs by RT-PCR method; format: cell-based
[23] = target: Transcriptional coactivator YAP1 (Homo sapiens) (UniProt P46937); experiment: Inhibition of YAP1 in human NCI-H1703 cells assessed as suppression of Sox2 mRNA expression at 5 to 10 uM incubated for 72 hrs by RT-PCR method; format: cell-based
NCI-H1650 [24] = experiment: Inhibition of adherence-independent cell growth in human NCI-H1650 cells at 10 uM incubated for 33 days; format: functional, cell-based
NCI-H1975 = experiment: Cytotoxicity in gefitinib and erlotinib resistant human NCI-H1975 cells assessed as reduction in cell viability at 1 to 10 uM incubated for 72 hrs by MTT assay; format: functional, cell-based
NCI-H1703 [25] = experiment: Inhibition of adherence-independent cell growth in human NCI-H1703 cells at 5 uM incubated for 33 days; format: functional, cell-based
[26] = target: Transcriptional coactivator YAP1 (Homo sapiens) (UniProt P46937); experiment: Inhibition of YAP1 in human NCI-H1650 cells assessed as suppression of fibronectin mRNA expression at 5 to 10 uM incubated for 72 hrs by RT-PCR method; format: cell-based
NCI-H1650 [27] = experiment: Inhibition of YAP1/TEAD2 interaction in human NCI-H1650 cells assessed as suppression of CTGF mRNA expression at 5 to 10 uM incubated for 72 hrs by RT-PCR method; format: cell-based
NCI-H1650 [28] = experiment: Effect on expression of Oct4 mRNA expression in human NCI-H1650 cells at 5 to 10 uM incubated for 72 hrs by RT-PCR method; format: cell-based; conditions: nci-h1650, 72 h
NCI-H1703 [29] = experiment: Effect on expression of Oct4 mRNA expression in human NCI-H1703 cells at 5 to 10 uM incubated for 72 hrs by RT-PCR method; format: cell-based; conditions: nci-h1703, 72 h
NCI-H1650 [30] = experiment: Effect on expression of Nanog mRNA expression in human NCI-H1650 cells at 5 to 10 uM incubated for 72 hrs by RT-PCR method; format: cell-based; conditions: nci-h1650, 72 h
NCI-H146 [31] = experiment: Effect on expression of Oct4 mRNA expression in human NCI-H146 cells at 5 to 10 uM incubated for 72 hrs by RT-PCR method; format: cell-based; conditions: nci-h146, 72 h
[32] = target: Transcriptional coactivator YAP1 (Homo sapiens) (UniProt P46937); experiment: Inhibition of YAP1 in human NCI-H1703 cells assessed as suppression of HK2 mRNA expression at 5 to 10 uM incubated for 72 hrs by RT-PCR method; format: cell-based
[33] = target: Transcriptional coactivator YAP1 (Homo sapiens) (UniProt P46937); experiment: Inhibition of YAP1 in human NCI-H1650 cells assessed as suppression of vimentin mRNA expression at 5 to 10 uM incubated for 72 hrs by RT-PCR method; format: cell-based
NCI-H1650 [34] = experiment: Inhibition of adherence-independent cell growth in human NCI-H1650 cells at 5 uM incubated for 33 days; format: functional, cell-based
[35] = target: Transcriptional coactivator YAP1 (Homo sapiens) (UniProt P46937); experiment: Inhibition of YAP1 in human NCI-H146 cells assessed as suppression of HK2 mRNA expression at 5 to 10 uM incubated for 72 hrs by RT-PCR method; format: cell-based
[36] = target: Transcriptional coactivator YAP1 (Homo sapiens) (UniProt P46937); experiment: Inhibition of YAP1 in human NCI-H1650 cells assessed as suppression of PD-L1 mRNA expression at 5 to 10 uM incubated for 72 hrs by RT-PCR method; format: cell-based
NCI-H1703 [37] = experiment: Inhibition of YAP1/TEAD2 interaction in human NCI-H1703 cells assessed as suppression of CTGF mRNA expression at 5 to 10 uM incubated for 72 hrs by RT-PCR method; format: cell-based
[38] = target: Transcriptional coactivator YAP1 (Homo sapiens) (UniProt P46937); experiment: Inhibition of YAP1 in human NCI-H1703 cells assessed as suppression of fibronectin mRNA expression at 5 to 10 uM incubated for 72 hrs by RT-PCR method; format: cell-based
[39] = target: Transcriptional coactivator YAP1 (Homo sapiens) (UniProt P46937); experiment: Inhibition of YAP1 in human NCI-H1703 cells assessed as suppression of PDK2 mRNA expression at 5 to 10 uM incubated for 72 hrs by RT-PCR method; format: cell-based

Chain of Transcriptional coactivator YAP1 (Homo sapiens) (P46937 whole entry): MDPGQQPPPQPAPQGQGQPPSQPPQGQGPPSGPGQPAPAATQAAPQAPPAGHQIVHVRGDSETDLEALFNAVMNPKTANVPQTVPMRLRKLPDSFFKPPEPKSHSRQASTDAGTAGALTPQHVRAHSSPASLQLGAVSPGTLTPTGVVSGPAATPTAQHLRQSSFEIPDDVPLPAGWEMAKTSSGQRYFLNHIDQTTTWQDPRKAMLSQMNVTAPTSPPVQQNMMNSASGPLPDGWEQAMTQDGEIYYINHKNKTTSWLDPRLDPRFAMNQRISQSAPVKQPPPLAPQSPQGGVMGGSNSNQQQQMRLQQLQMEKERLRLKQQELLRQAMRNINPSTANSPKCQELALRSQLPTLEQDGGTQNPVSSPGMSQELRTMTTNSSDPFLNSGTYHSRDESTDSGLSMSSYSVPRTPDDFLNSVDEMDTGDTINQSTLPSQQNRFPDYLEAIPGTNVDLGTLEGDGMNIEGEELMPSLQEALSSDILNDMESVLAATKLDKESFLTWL

inhibition [1]: > 70%
inhibition [2]: 90%
SMILES: O=C(CC1CCN(C(=O)CCc2ccccc2)CC1)N[C@@H](Cc1ccc(OCc2ccccc2)cc1)C(=O)NC1CCCC1

inhibition [1]: 65%
inhibition [3]: 80%
SMILES: O=C(CC1CCN(C(=O)CCc2ccccc2)CC1)N[C@@H](Cc1ccc(OCc2ccccc2)cc1)C(=O)NC1CCC1

inhibition [5]: Active
SMILES: O=[N+]([O-])c1[nH]cnc1/C=C/c1ccccc1
inhibition (NCI-H1650 [4]): Active
inhibition (NCI-H1650 [6]): Active
Activity (NCI-H1650 [7]): Active
Activity [8]: Non-Toxic

inhibition [9]: Active
SMILES: CCOc1ccc(CCC(=O)N2CCC(CC(=O)N[C@@H](Cc3ccc(OCc4ccccc4)cc3)C(=O)O)CC2)cc1
inhibition (NCI-H1650 [10]): Active

inhibition [1]: 84%
inhibition [3]: 75%
SMILES: COC(=O)[C@H](Cc1ccc(OCc2ccccc2)cc1)NC(=O)CC1CCN(C(=O)c2ccccc2)CC1
inhibition (NCI-H1650 [6]): Active

inhibition [1]: 70%
inhibition [2]: 90%
SMILES: O=C(CC1CCN(C(=O)CCc2ccccc2)CC1)N[C@@H](Cc1ccc(OCc2ccccc2)cc1)C(=O)NC1CCCCC1

SMILES: COC(=O)[C@H](Cc1ccc(OCc2ccccc2)cc1)NC(=O)CC1CCN(C(=O)CCc2ccccc2C)CC1
inhibition (NCI-H1650 [11]): Active

inhibition [5]: Active
inhibition [9]: Active
SMILES: Oc1ccccc1/N=C/c1c(O)ccc2ccccc12
inhibition (NCI-H1650 [4]): Active
inhibition (NCI-H1650 [6]): Active
Activity (NCI-H1650 [7]): Active
Activity [8]: Non-Toxic
inhibition (NCI-H1650 [10]): Active

SMILES: CCOc1ccc(CCC(=O)N2CCC(CC(=O)N[C@@H](Cc3ccc(OCc4ccccc4)cc3)C(=O)OC)CC2)cc1
inhibition (NCI-H1650 [11]): Active

inhibition [1]: 71%
inhibition [2]: 75%
SMILES: CC(C)(C)OC(=O)N1CCC(CC(=O)N[C@@H](Cc2ccc(OCc3ccccc3)cc2)C(=O)NC2CCCCC2)CC1

inhibition [1]: 74%
inhibition [2]: 75%
SMILES: CC(C)(C)OC(=O)N1CCC(CC(=O)N[C@@H](Cc2ccc(OCc3ccccc3)cc2)C(=O)O)CC1

inhibition [1]: > 84%
inhibition [2]: 95%
SMILES: O=C(CC1CCN(C(=O)CCc2ccccc2)CC1)N[C@@H](Cc1ccc(OCc2ccccc2)cc1)C(=O)NCC1CC1

SMILES: COC(=O)[C@H](Cc1ccc(OCc2ccccc2)cc1)NC(=O)CC1CCN(C(=O)CC(c2ccccc2)c2ccccc2)CC1
inhibition (NCI-H1650 [11]): Active

inhibition [13]: Active
inhibition [17]: Active
inhibition [18]: Active
inhibition [19]: Active
inhibition [20]: Active
inhibition [21]: Active
inhibition [22]: Active
inhibition [23]: Active
inhibition [26]: Active
inhibition [32]: Active
inhibition [33]: Active
inhibition [35]: Active
inhibition [36]: Active
inhibition [38]: Active
inhibition [39]: Active
SMILES: O=[N+]([O-])c1nc[nH]c1/C=C/c1cccc(F)c1
inhibition (NCI-H1703 [12]): Active
inhibition (NCI-H146 [14]): Active
Activity (NCI-H146 [15]): Non-Toxic
Activity (NCI-H1703 [16]): Non-Toxic
inhibition (NCI-H1650 [24]): Active
Activity (NCI-H1975): Active
inhibition (NCI-H1703 [25]): Active
inhibition (NCI-H1650 [27]): inactive
Activity (NCI-H1650 [28]): Non-Toxic
Activity (NCI-H1703 [29]): Non-Toxic
Activity (NCI-H1650 [30]): Non-Toxic
Activity (NCI-H146 [31]): Non-Toxic
inhibition (NCI-H1650 [34]): Active
inhibition (NCI-H1703 [37]): inactive
